Key:
[1] = tested on: AZD9291-resistant human adenosquamous carcinoma of the lung PDX model LUN #2441-118; assay: Efficacy in AZD9291-resistant human lung cancer PDX model LUN #2441-118; assay type: in vivo, immunodeficient mice; details: Day 25
Excerpt: (§1) The human-derived tumor tissue xenograft model (PDX model) is a tumor model established in immunodeficient mice using human tumor tissue, which retains the heterogeneity, molecular diversity and histological characteristics of the primary tumor to the greatest extent. It has a high predictive value for the clinical therapeutic effect of drugs and has been increasingly used in cancer research (Hidalgo-2014) in recent years. […] In all experiments, the commercially available third-generation EGFR inhibitor AZD9291 was used as a reference drug to compare tumor inhibition activities.
(§2) LUN #2441-118 is an AZD9291-resistant human adenosquamous carcinoma of the lung PDX model. […] During the entire experiment, ADC-3 was administered four times in total, via tail vein injection on Day 0, Day 4, Day 8, and Day 12, and AZD9291 was administered 28 times in total, once a day by intragastric administration. The experiment period was 28 days. […] Tumor-bearing mice had good tolerance to the tested drugs.

[2] = tested on: AZD9291-resistant human lung adenocarcinoma PDX model LUN #2005-143; assay: Efficacy in AZD9291-resistant human lung cancer PDX model LUN #2005-143; assay type: in vivo, immunodeficient mice; details: Day 29
Excerpt: as §1
LUN #2005-143 is an AZD9291-resistant human lung adenocarcinoma (a type of NSCLC) PDX model. This experiment was performed in total of 4 groups, including a Vehicle group (ADC-3 vehicle), an AZD9291 administration group (5 mg/kg), and ADC-3 administration groups (1 mg/kg and 3 mg/kg). During the entire experiment, ADC-3 was administered four times in total, via tail vein injection on Day 0, Day 4, Day 8, and Day 12, and AZD9291 was administered 29 times in total, once a day by intragastric administration. […] In terms of body weight, all animals in the tested drug groups had good tolerance. […] In this experiment, tumor-bearing mice had good tolerance to the tested drugs.

[3] = tested on: AZD9291-resistant human large cell lung carcinoma PDX model LUN #2355-128; assay: Efficacy in AZD9291-resistant human lung cancer PDX model LUN #2355-128; assay type: in vivo, immunodeficient mice; details: Day 16
Description: as §1, with “extent.” for “extent. It has a high predictive value for the clinical therapeutic effect of drugs and has been increasingly used in cancer research (Hidalgo-2014) in recent years.”
This experiment was performed in total of 4 groups, including a Vehicle group (ADC-3 vehicle), an AZD9291 administration group (5 mg/kg), and ADC-3 administration groups (1 mg/kg and 3 mg/kg). During the entire experiment, ADC-3 was administered four times in total, via tail vein injection on Day 0, Day 4, Day 8, and Day 12, and AZD9291 was administered 27 times in total, once a day by intragastric administration. The experiment period was 27 days.

[4] = tested on: AZD9291-resistant human adenosquamous carcinoma of the lung PDX model LUN #2210-4a; assay: Efficacy in AZD9291-resistant human lung cancer PDX model LUN #2210-4a; assay type: in vivo, immunodeficient mice; details: Day 28
Excerpt: as §1
as §2, with “#2210-4a” for “#2441-118”, “administration.” for “administration. The experiment period was 28 days.”

[5] = tested on: AZD9291-resistant human adenosquamous carcinoma of the lung PDX model LUN #2210-106; assay: Efficacy in AZD9291-resistant human lung cancer PDX model LUN #2210-106; assay type: in vivo, immunodeficient mice; details: Day 30
Excerpt: as §1
LUN #2210-106 is an AZD9291-resistant human adenosquamous carcinoma of the lung PDX model. This experiment was performed in total of 4 groups, including a Vehicle group (ADC-3 vehicle), an AZD9291 administration group (5 mg/kg), and ADC-3 administration groups (1 mg/kg and 3 mg/kg). During the entire experiment, ADC-3 was administered four times in total, via tail vein injection on Day 0, Day 4, Day 8, and Day 12, and AZD9291 was administered 30 times in total, once a day by intragastric administration. […] Tumor-bearing mice had good tolerance to the tested drugs.

[6] = tested on: human lung cancer PDX model LUN #2210-106; assay: Efficacy of MYK-3, AK103 and their combination in human lung cancer PDX model LUN #2210-106 in Hu-HSC-NPG mice; assay type: in vivo; details: Day 20
Description: LUN #2210-106 is an AZD9291-resistant human adenosquamous carcinoma of the lung PDX model. This experiment was performed in total of 4 groups, including a Vehicle group (ADC-3 vehicle), an ADC-3 administration group (1 mg/kg), an AK103 administration group (5 mg/kg), and an ADC-3 (1 mg/kg)+AK103 (5 mg/kg) administration group. During the entire experiment, ADC-3 was administered three times in total for the ADC-3 single-drug administration group, via tail vein injection on Day 0, Day 4, and Day 8; and AK103 was administered every three days via tail vein injection for the AK103 single-drug administration group, 8 times in total. For the ADC-3+AK103 administration group, ADC-3 was administered three times, and AK103 was administered ten times in total, and their administration modes were the same as those for the single-drug administration groups. The experiment period was 34 days. […] During the period from Day 20 to Day 34, the mean tumor volume of animals in the ADC-3 (1 mg/kg) administration group gradually resumed growth (from 184 mm^3 to 893 mm^3); the mean tumor volume of animals in the ADC-3 (1 mg/kg)+AK103 (5 mg/kg) administration group grew slowly (from 38 mm^3 to 126 mm^3), and on Day 34, complete tumor regression was still observed in 1 out of 6 animals.

[7] = 5 mg/kg intragastric once a day
[8] = AZD9291 dose 3 mg/kg in Table 4

Molecule	Relative tumor proliferation rate T/C (%) [1, 7] [%]	Tumor growth inhibition rate TGI % [1, 7] [%]	Relative tumor proliferation rate T/C (%) [1, 8] [%]	Tumor inhibition activity [1, 8]	Relative tumor proliferation rate T/C (%) [2, 7] [%]	Tumor growth inhibition rate TGI % [2, 7] [%]	Tumor inhibition activity ([2]; 5 mg/kg)	Relative tumor proliferation rate T/C (%) [3, 7] [%]	Tumor growth inhibition rate TGI % [3, 7] [%]	Tumor inhibition activity ([3]; 5 mg/kg)	Relative tumor proliferation rate T/C (%) [4, 7] [%]	Tumor growth inhibition rate TGI % [4, 7] [%]	Tumor growth inhibition rate TGI % [4, 8] [%]	Tumor inhibition activity [4, 8]	Relative tumor proliferation rate T/C (%) [5, 7] [%]	Tumor growth inhibition rate TGI % [5, 7] [%]	Tumor inhibition activity ([5]; 5 mg/kg)	Relative tumor proliferation rate T/C (%) ([6]; 5 mg/kg i.v. every three days)	Tumor growth inhibition rate TGI % ([6]; 5 mg/kg i.v. every three days) [%]	Tumor inhibition activity ([6]; 5 mg/kg)
C=CC(=O)Nc1cc(Nc2nccc(-c3cn(C)c4ccccc34)n2)c(OC)cc1N(C)CCN(C)C [AZD9291, osimertinib, reference compound]	29.35	70.65	29.35	++ (T/C (%) >20% and ≤40%)	36.90	63.10	++ (T/C (%) >20% and ≤40%)	33.61	66.39	++ (T/C (%) >20% and ≤40%)	68.99	31.01	31.01	+ (T/C (%) >40%)	65.31	34.69	+ (T/C (%) >40%)			
AK103: anti-PD-1 monoclonal antibody drug and immune checkpoint inhibitor																		93.61	6.39	+ (T/C (%) >40%)

Reference: patent US20250135021A1, “USE OF ANTIBODY-DRUG CONJUGATE, AND COMBINED DRUG AND USE THEREOF” (SHANGHAI MIRACOGEN INC., priority 2021, published 2025)
